# Patent publication US20230127703A1, “THERAPEUTIC AGENT FOR CORONAVIRUS INFECTION” (FUJIFILM Toyama Chemical Co., Ltd., priority 2020, published 2023)
# System: SARS-CoV-2
# [1] = improvement of body temperature, SpO2, chest imaging followed by negative conversion of SARS-CoV-2, N = 107
compound,measurement,setting,value
"NC(=O)c1nc(F)cnc1O [Compound A, 6-fluoro-3-hydroxy-2-pyrazinecarboxamide]",median time to improvement compared with control group,Compound A group (107 patients) vs control group (49 patients),shorter by approximately three days
same,treatment effect compared with control group,Compound A group vs control group,statistically significantly higher treatment effect
same,clinical safety,"Compound A group, 107 patients, up to 14 days of treatment",no clinical safety concerns were identified
same,Time to improvement in 25% of patients (days) (median),[1],7.7 days
same,Time to improvement in 50% of patients (days) (median),[1],11.8 days
same,Time to improvement in 75% of patients (days) (median),[1],15.6 days
same,Patients with improvement,"number of patients of N = 107, standard of care + 1,800 mg BID Day 1, 800 mg BID up to 13 days, oral, mITT",82
